One assay concerns the target T1, Adenosine receptor A1 (Rattus norvegicus, UniProt P25099).
T1 sequence (P25099 whole entry): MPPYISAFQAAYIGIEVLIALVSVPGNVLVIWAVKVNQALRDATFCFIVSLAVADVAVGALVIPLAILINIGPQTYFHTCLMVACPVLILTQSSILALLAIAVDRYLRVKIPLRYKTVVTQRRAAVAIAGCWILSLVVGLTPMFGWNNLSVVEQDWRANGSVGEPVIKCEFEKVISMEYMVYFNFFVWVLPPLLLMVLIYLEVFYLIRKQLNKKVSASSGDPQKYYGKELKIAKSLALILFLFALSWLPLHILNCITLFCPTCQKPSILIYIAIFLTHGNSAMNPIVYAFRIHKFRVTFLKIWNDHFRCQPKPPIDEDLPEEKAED
Put plainly: Radiological Binding Assay. To be noted: pH 7.4. As for the experimental part:
For A1 adenosine receptors, […] of protein were incubated for 60 min at 25°C with [3H]DPCPX 0.5 nM (Kd = 0.4 nM) and increasing concentrations of the compounds, in a final volume of 0.4 mL of Tris-HCl buffer. Binding reaction was terminated by dilution with ice-cold 50 mM Tris-HCl buffer, pH 7.4.For A2A and A3 adenosine receptors, […] of protein were incubated with [3H]ZM241385 6 nM (Kd = 4 nM) in the experiments involving A2A and with [3H]NECA 15 nM (Kd = 150 nM) involving A3 and the compounds to be assayed, at fixed concentration (10 µM) or at increasing concentrations of the compounds in duplicate, in a final volume of 0.4 mL of Tris-HCl buffer for 120 min at 25°C. Non-specific binding was measured in the presence of 100 µM NECA in the case of A2A and 100 µM R-PIA in the case of A3 binding assay. Bound radioactivity of all samples was measured in a liquid scintillation counter (1600 TR Packard) after the addition of 4 mL of scintillation liquid (Emulsifier-Safe; Hewlett-Packa

Assay [1] has as its target Adenosine receptor A1 (rat). Put plainly: For A1 adenosine receptors, […] of protein were incubated for 60 min at 25°C with [3H]DPCPX 0.5 nM (Kd = 0.4 nM) and increasing concentrations of the compounds, in a final volume of 0.4 mL of Tris-HCl buffer. Binding reaction was terminated by dilution with ice-cold 50 mM Tris-HCl buffer, pH 7.4.For A2A and A3 adenosine receptors, […].

In another assay the target is Adenosine receptor A2a. The assay is described as above.

SMILES strings stand for the structures. pKi: −log10 of the molar value.

Broadly, the pKi is the Ki on a negative log10 scale, so that one unit is a factor of ten.

Turning to `Nc1nc(-c2ccccc2)nc2c1nnn2Cc1ccccc1F` [9-(ortho-fluorobenzyl)-2-phenyl-azaadenine (1bis)], the negative logarithm of the Ki (pKi) (on Adenosine receptor A1; in assay [1]) was 8.42 each time.
As to `O=C(Nc1nc(-c2ccccc2)nc2c1nnn2Cc1ccccc1F)C1CC1` [N-[9-(ortho-fluorobenzyl)-2-phenyl-9H-8-azapurin-6-yl]-amides (2)], the results for the pKi (in assay [1]; at Adenosine receptor A2a) were 8.04 and 6.53, respectively.
As to `O=C(Nc1nc(-c2ccccc2)nc2c1nnn2Cc1ccccc1F)C1CCC1` [N-[9-(ortho-fluorobenzyl)-2-phenyl-9H-8-azapurin-6-yl]-amides (3)], the figures for the pKi (in assay [1]; on Adenosine receptor A2a) were 9.15 and 7.14, respectively.
The like results for `O=C(Nc1nc(-c2ccccc2)nc2c1nnn2Cc1ccccc1F)C1CCCC1` [N-[9-(ortho-fluorobenzyl)-2-phenyl-9H-8-azapurin-6-yl]-amides (4)] were, in that order, 8.85 and 6.72.
The matching figures for `O=C(Nc1nc(-c2ccccc2)nc2c1nnn2Cc1ccccc1F)C1CCCCC1` [N-[9-(ortho-fluorobenzyl)-2-phenyl-9H-8-azapurin-6-yl]-amides (5)]: 8.68 and 6.38.
The matching figures for `O=C(Nc1nc(-c2ccccc2)nc2c1nnn2Cc1ccccc1F)c1ccco1` [N-[9-(ortho-fluorobenzyl)-2-phenyl-9H-8-azapurin-6-yl]-amides (6)]: 8.26 and 6.65.
With `O=C(Nc1nc(-c2ccccc2)nc2c1nnn2Cc1ccccc1F)c1ccoc1` [N-[9-(ortho-fluorobenzyl)-2-phenyl-9H-8-azapurin-6-yl]-amides (7)], the pKi in assay [1] is 8.64; on Adenosine receptor A2a, 7.04.
For `O=C(Nc1nc(-c2ccccc2)nc2c1nnn2Cc1ccccc1F)c1cccc(Cl)c1` [N-[9-(ortho-fluorobenzyl)-2-phenyl-9H-8-azapurin-6-yl]-amides (8)], the pKi in assay [1] is 7.37.
`O=C(Nc1nc(-c2ccccc2)nc2c1nnn2Cc1ccccc1F)c1cccc(F)c1` [N-[9-(ortho-fluorobenzyl)-2-phenyl-9H-8-azapurin-6-yl]-amides (9)] gave a pKi in assay [1] of 8.26.
As to `O=C(Nc1nc(-c2ccccc2)nc2c1nnn2Cc1ccccc1F)c1cccc([N+](=O)[O-])c1` [N-[9-(ortho-fluorobenzyl)-2-phenyl-9H-8-azapurin-6-yl]-amides (11)], in assay [1], the pKi is 7.55.
In the case of `O=C(Nc1nc(-c2ccccc2)nc2c1nnn2Cc1ccccc1F)c1ccc([N+](=O)[O-])cc1` [N-[9-(ortho-fluorobenzyl)-2-phenyl-9H-8-azapurin-6-yl]-amides (12)], in assay [1], the pKi was 7.85.
On the same count and under the same terms, in the case of `O=C(Nc1nc(-c2ccccc2)nc2c1nnn2Cc1ccccc1F)c1ccc(I)cc1` [N-[9-(ortho-fluorobenzyl)-2-phenyl-9H-8-azapurin-6-yl]-amides (13)] it was 7.04; in that of `Nc1ccc(C(=O)Nc2nc(-c3ccccc3)nc3c2nnn3Cc2ccccc2F)cc1` [N-[9-ortho-fluorobenzyl)-2-phenyl-9H-8-azapurin-6-yl]-amides (15)], 7.74.
